These results are taken from patent publication EP0489933A1, “BILE ALCOHOL AND DRUG CONTAINING THE SAME AS ACTIVE INGREDIENT” (TSUMURA CO., LTD., priority 1990, dated 1992).

Assay [1] concerns rats of diabetes mellitus. Briefly: Blood sugar level in streptozotocin-induced diabetes mellitus. As to conditions: 50 mg/kg. The class given is in vivo, male rats of Wistar line. The method, then: In this experiment, 8-week-old male rats of Wistar line (5 individuals per one group) were used after rearing them for 1 week with normal feed. Streptozotocin (40 mg/kg) was administered by tail intravenous injection to obtain rats of diabetes mellitus. Beginning after 1 week of the streptozotocin administration, oral administration of each test drug has been carried out for 1 week, followed by 24 hours of fasting. Thereafter, blood sample was collected from lower abdominal vena cava under anesthesia with Nembutal® (1 ml/kg, i.p.). Serum samples were prepared from the thus collected blood samples and checked for their blood sugar levels, with the results shown in Table 9.

In assay [2] the test system is male mice of ddY line. Kind of assay: Blood oxygen and carbon dioxide partial pressure. Conditions: 20 mg/kg, i.p.; blood from abdominal aorta 60 minutes after administration. The class given is in vivo. The method, then: In this experiment, 4-week-old male mice of ddY line (10 individuals per one group) were used after fasting treatment for 24 hours.
After 60 minutes of the administration of each compound of the present invention, each mouse was subjected to ventrotomy under anesthesia with Nembutal® (Dainabot Co., Ltd.; 50 mg/kg, i.p.) to collect blood from abdominal aorta, and the collected blood sample was immediately checked for its oxygen partial pressure (PO₂) and carbon dioxide partial pressure (PCO₂) using a blood-aerotonometer (Model 170, Ciba-Corning).

Assay [3] deals with erythrocytes. Kind of assay: Erythrocyte deformability (filtration through 5 µm filter) after oral administration. Type of assay: in vivo, male rats of Wistar line. Conditions: 30 mg/kg, p.o.; blood collected 90 minutes after administration; number of filtered erythrocytes. As to the method:
In this experiment, 9-week-old male rats of Wistar line (5 to 6 individuals per one group) were used after rearing them for 1 week with normal feed. After 24 hours of fasting, each test drug was administered orally and, 90 minutes thereafter, blood sample was collected from lower abdominal vena cava of each rat under anesthesia with Nembutal® (1 ml/kg, i.p.). Blood samples obtained in this way were checked for their blood clotting time and erythrocyte deformability.
Measuring procedures are as follows.
Erythrocyte deformability ... The collected blood is extruded from a syringe with a constant flow of He in a holder equipped with a filter (5 µm). Weight of blood and the number of erythrocytes filtered during a fixed time are measured and the deformability is expressed based on the number of filtered erythrocytes. The results of these measurements are shown respectively in Tables 11 and 12.

Assay [4] relates to male SD rats. Briefly: Thrombus formation in abdominal vena cava. Type of assay: in vivo. As to conditions: 30 mg/kg, p.o.; dry weight of thrombus. As to the method: Each of male SD rats of 130 to 210 g in body weight was anesthetized with Nembutal® (50 mg/kg, i.p.) and subjected to median incision ventrotomy to release about a 2 cm portion of abdominal vena cava below the renal vein. Blood flow of the thus released vena cava was temporarily stopped for 5 minutes with 8 hemostatic clips. After recirculating blood for 5 minutes by removing the hemostatic clips, […] was ligated at a position just below the renal vein and the median-incised part was sutured. Two hours after the ligature, the thus treated rat was again subjected to ventrotomy to excise abdominal vena cava. The thus excised blood vessel was cut open on a filter paper which had been moistened with physiological saline, in order to take out thrombus. The thrombus thus obtained was washed with physiological saline to remove adhered blood and the like substances and then dried at 80°C for 12 hours or longer to measure its dry weight. In this instance, each drug to be tested was orally administered 90 minutes before the clipping to examine its effect by single administration on the formation of thrombus. Separately from this, each test drug was administered to 6-week-old male SD rat continuously for 7 days, thrombus was prepared in the eighth day in the same manner as described above and dry weight of the thrombus was measured, in order to examine effect of the continuous 7 day administration on the thrombus formation.

Assay [5] relates to red blood cells. Briefly: Inhibition of thermal hemolysis of red blood cells. Type of assay: cell-based, donryu rats. As to conditions: 53°C for 20 minutes; for inhibition at 10 µM / inhibition at 50 µM / inhibition at 100 µM / inhibition at 200 µM / inhibition at 500 µM: Rattus norvegicus, Erythrocyte, 20 min, read-out: Hemolysis Inhibition Ratio (%) against Control. As to the method: Blood was collected from donryu rats of 150 to 200 g in body weight and centrifuged at 1,500 rpm for 5 minutes to obtain red blood cells. The red blood cells thus collected were diluted with 0.15 M phosphate buffer (pH 7.4) to prepare a 5% red blood cell suspension. A 3.8 ml portion of the thus prepared suspension was mixed with 0.2 ml solution of each compound of the present invention which has been adjusted to each level of the concentrations as shown in the following table, and the resulting mixture was shaken thoroughly and incubated at 53°C for 20 minutes. Thereafter, the thus incubated mixture was cooled rapidly with tap water and centrifuged at 3,000 rpm for 15 minutes, and absorbance at 540 nm of the resulting supernatant fluid was measured using a spectrophotometer (Hitachi: Type 200-20). Inhibition rate (%) of red blood cell hemolysis at each concentration of the compound was calculated based on the absorbance, with the results shown in Table 8.

Assay [6] deals with male mice of ddY line. Kind of assay: Survival time under hypoxia (aeration with 96% nitrogen and 4% oxygen). The class given is in vivo. As to conditions: 50 mg/kg, i.p., 60 minutes before aeration with 96% nitrogen and 4% oxygen; time to respiratory arrest. The method, then: In this experiment, 5 to 6-week-old male mice of ddY line (10 individuals per one group) were used after fasting treatment for 24 hours.
Each compound obtained in the present invention was administered intraperitoneally. After 60 minutes of the administration, each mouse was transferred separately into a transparent vessel (capacity, 1,000 ml) equipped with an air exit, and the vessel was aerated with a mixed gas consisting of 96% nitrogen and 4% oxygen at an aeration rate of 5 ℓ/min.
All tested mice died within 180 seconds after the commencement of the gas mixture aeration. Terminal respiration was observed several times prior to the respiratory arrest. Survival time of the control group was roughly in the range of from 96 to 111 seconds.

For assay [7], the system named is male mice of ddY line. The class given is in vivo. As to conditions: 50 mg/kg, i.p., 60 minutes before KCN (3.0 mg/kg) tail intravenous injection; for Survival Time ±S.E.: time to respiratory arrest.
The subject of assay [8] is platelet rich plasma (PRP). Kind of assay: Platelet aggregation in platelet rich plasma after oral administration. Type of assay: in vivo, male rat. Conditions: 30 mg/kg, p.o., blood 90 minutes after administration. The method, then:
Each drug to be tested was orally administered to each male rat which has been subjected to fasting treatment for 18 to 24 hours. After 90 minutes of the administration, median incision ventrotomy was carried out under ether anesthesia to collect 9 volumes of blood using a syringe filled with 1 volume of 3.8% sodium citrate solution (3.8% sodium citrate solution:blood = 1:9). After thorough mixing, the thus prepared mixture was centrifuged at 800 rpm for 10 minutes at room temperature to collect the resulting supernatant fluid as platelet rich plasma (PRP). The residual portion was centrifuged at 3,000 rpm for 15 minutes at room temperature to collect the resulting supernatant fluid as platelet poor plasma (PPP). The PRP was diluted with the PPP to adjust the number of platelets to 3×10⁵ ± 2×10⁴ cells/µl. A 450 µl portion of the thus diluted PRP was incubated at 37°C for 3 minutes and then mixed with 50 µl of 1×10⁻⁵ M of ADP or 1×10⁻⁵ g/ml of collagen. Thereafter, platelet aggregation test of the mixture was carried out using an aggregometer by measuring transmittance at 940 nm.

Where [9] appears, read: i.o., administered for 1 week beginning 1 week after streptozotocin (40 mg/kg), serum.

The structures appear in SMILES notation. Like-named read-outs stand apart in the source and are kept apart here.

Regarding `CC(CCC1OCC1CO)C1CCC2C3C(O)CC4CC(O)CCC4(C)C3CC(O)C12C` [Example 3, (24R)-(25S)-(+)-24,26-epoxy-5β-cholestane-3α,7α,12α,27-tetrol], the “Blood Sugar Level ± S.E.” value in assay [1] (168 h) was determined as 143 ± 6.9 mg/dL. Besides, the “Carbon Dioxide Partial Pressure” value in assay [2] came to 45.5 mmHg. For the same molecule, in assay [2], the “Oxygen Partial Pressure” value worked out at 86.1 mmHg. Besides, in assay [3], the “Erythrocyte Deformation: Erythrocyte counts ±S.E.” value (from here on “Erythrocyte Deformation”) was 3.55 ± 0.66 × 10⁷. Besides, in assay [4], the “Antithrombotic Effect: Thrombus weight ±S.E.” value (“Antithrombotic Effect” for short) was determined as 13.5 ± 1.22 mg. In addition, the “Hemolysis Inhibition Ratio (%) against Control” value in assay [5] (0.01 mM) amounted to 33%; in assay [5] (0.05 mM), 30%; in assay [5] (0.1 mM) it was 24%; in assay [5] (0.2 mM), 51%; in assay [5] (0.5 mM), 70%. For the same molecule, the “Survival Time ±S.E.” value in assay [6] was 113.2 ± 5.28 s; in assay [7] it was 107.3 ± 8.6 s. In addition, in assay [7], the “Lethality (%)” value is listed as 80%. Besides, the “Platelet Aggregation Ratio ±S.E.” value in assay [8] (ADP (1×10⁻⁵ M)) was found to be 42.5 ± 3.81%; in assay [8] (Collagen (1×10⁻⁵ g/ml)), 42.5 ± 1.85%.
For `C[C@H](CC[C@H]1OC[C@H]1CO)[C@H]1CC[C@H]2[C@@H]3[C@H](O)C[C@@H]4C[C@H](O)CC[C@]4(C)[C@H]3C[C@H](O)[C@]12C` [Example 4, (24R)-(25R)-(+)-24,26-epoxy-5β-cholestane-3α,7α,12α,27-tetrol], the “Blood Sugar Level ± S.E.” value in assay [1] (setting [9]) is 181 ± 8.9 mg/dL. Besides, in assay [2], the “Carbon Dioxide Partial Pressure” value came to 39.1 mmHg and the “Oxygen Partial Pressure” value was determined as 85.3 mmHg. Further, in assay [3], the “Erythrocyte Deformation” value came to 3.97 ± 0.39 × 10⁷. In addition, the “Antithrombotic Effect” value in assay [4] was determined as 11.2 ± 3.81 mg. Besides, the inhibition at 10 µM in assay [5] (0.01 mM) stood at 27%. Also, in assay [5] (0.05 mM), the inhibition at 50 µM stood at 21%. Besides, the inhibition at 100 µM in assay [5] (0.1 mM) was determined as 31%. Moreover, the inhibition at 200 µM in assay [5] (0.2 mM) amounted to 44%. Moreover, the inhibition at 500 µM in assay [5] (0.5 mM) is 48%. Also, the “Survival Time ±S.E.” value in assay [6] stood at 115.5 ± 3.88 s. In assay [7], the “Lethality (%)” value was 80% and the “Survival Time ±S.E.” value is 98.1 ± 13.1 s. Further, the “Platelet Aggregation Ratio ±S.E.” value in assay [8] (ADP (1×10⁻⁵ M)) turned out to be 46.1 ± 2.65%. In addition, in assay [8] (Collagen (1×10⁻⁵ g/ml)), the “Platelet Aggregation Ratio ±S.E.” value came out at 47.7 ± 3.88%.
On to `C[C@H](CC[C@@H](O)C1COC1)[C@H]1CC[C@H]2[C@@H]3[C@H](O)C[C@@H]4C[C@H](O)CC[C@]4(C)[C@H]3C[C@H](O)[C@]12C` [Example 5, (24R)-(+)-26,27-epoxy-5β-cholestane-3α,7α,12α,24-tetrol], for which the “Blood Sugar Level ± S.E.” value in assay [1] (setting [9]) was 122 ± 7.8 mg/dL. Moreover, in assay [2], the “Carbon Dioxide Partial Pressure” value was determined as 39.9 mmHg and the “Oxygen Partial Pressure” value turned out to be 87.1 mmHg. In addition, the “Erythrocyte Deformation” value in assay [3] is 4.10 ± 0.55 × 10⁷. In assay [4], the “Antithrombotic Effect” value was determined as 11.2 ± 3.12 mg. Further, the inhibition at 10 µM in assay [5] (0.01 mM) was found to be 23%. The inhibition at 50 µM in assay [5] (0.05 mM) stood at 19%. Besides, the inhibition at 100 µM in assay [5] (0.1 mM) turned out to be 30%. Also, the inhibition at 200 µM in assay [5] (0.2 mM) was 41%. Moreover, the inhibition at 500 µM in assay [5] (0.5 mM) was 61%. The “Survival Time ±S.E.” value in assay [6] was found to be 110.0 ± 5.10 s. Also, in assay [7], the “Lethality (%)” value was 80% and the “Survival Time ±S.E.” value is 99.5 ± 7.21 s. Besides, the “Platelet Aggregation Ratio ±S.E.” value in assay [8] (ADP (1×10⁻⁵ M)) is 48.5 ± 3.31%. Moreover, the “Platelet Aggregation Ratio ±S.E.” value in assay [8] (Collagen (1×10⁻⁵ g/ml)) is on record as 48.1 ± 2.65%.
Take `C[C@H](CCCC(CO)CO)[C@H]1CC[C@H]2[C@@H]3[C@H](O)C[C@@H]4C[C@H](O)CC[C@]4(C)[C@H]3C[C@H](O)[C@]12C` [Example 6, 3α,7α,12α,26,27-pentahydroxy-5β-cholestane]: the “Blood Sugar Level ± S.E.” value in assay [1] (setting [9]) was 138 ± 6.8 mg/dL. Further, the “Carbon Dioxide Partial Pressure” value in assay [2] is 40.3 mmHg. Also, the “Oxygen Partial Pressure” value in assay [2] was found to be 83.5 mmHg. The “Erythrocyte Deformation” value in assay [3] worked out at 3.81 ± 0.44 × 10⁷. Also, the “Antithrombotic Effect” value in assay [4] was 13.5 ± 2.11 mg. The inhibition at 10 µM in assay [5] (0.01 mM) was determined as 33%. The inhibition at 50 µM in assay [5] (0.05 mM) came to 25%. In addition, the inhibition at 100 µM in assay [5] (0.1 mM) was found to be 20%. Moreover, in assay [5] (0.2 mM), the inhibition at 200 µM amounted to 41%. In addition, the inhibition at 500 µM in assay [5] (0.5 mM) was determined as 62%. The “Survival Time ±S.E.” value in assay [6] is 127.5 ± 9.26 s; in assay [7], 98.7 ± 8.81 s. Moreover, in assay [7], the “Lethality (%)” value is recorded as 80%. Moreover, the entries for the “Platelet Aggregation Ratio ±S.E.” value in assay [8] (ADP (1×10⁻⁵ M)) and in assay [8] (Collagen (1×10⁻⁵ g/ml)) were 50.1 ± 2.33% and 42.3 ± 3.83%, respectively.
